Laboratory results published in publication PMC11343776 (Clinical Pharmacokinetics, 2024).
“Also recorded” adds a separate entry of the source.

Experiments:
[1] = Population pharmacokinetic model of capivasertib plasma concentrations; assay type: in vivo, patients with advanced or metastatic solid tumours
[2] = system: ROCK1/2; assay: In vitro cellular kinase inhibition: ROCK1/2; assay type: cell-based
[3] = system: CYP3A4; settings: single dose capivasertib 80 mg; cited from earlier work
[4] = system: CYP3A; settings: capivasertib 400 mg b.i.d., intermittent schedule; cited from earlier work
[5] = dose range 80–800 mg; cited from earlier work
[6] = Model simulations and covariate assessment; design: species or system patients with advanced or metastatic solid tumours; settings: for decrease of CL/F after approximately 120 h: multiple doses
[7] = healthy subjects; cited from earlier work
[8] = 400 mg b.i.d. (4/3) after multiple doses
[9] = body weight 47 kg vs 67 kg reference

## NC1(C(=O)N[C@@H](CCO)c2ccc(Cl)cc2)CCN(c2nc[nH]c3nccc2-3)CC1 [capivasertib]
[1]; 400 mg b.i.d. (4/3)
  effective t½: 8.34 h
[1]; at 400 mg
  apparent volume of distribution at steady state: 255.6 L
[1]; final model estimate, semi-fasted or fed
  Lag1_tab absorption lag time for tablets: 0.21 h
[1]; oral
  fraction of dose absorbed by zero-order process: 20%
  fraction of dose absorbed using the first-order mechanism: 80%
[1]; slight variations with dose level, body weight, food status
  time to maximum concentration: 1.4 h
[2]
  inhibition of ROCK-mediated phosphorylation of cofilin: not effective
[3]
  increase of capivasertib AUC by itraconazole: 95%
[4]
  increase in midazolam exposure: up to 75%
[5]
  dose proportionality of plasma exposure: approximately dose proportional
  terminal half-life (t½): approximately 10 hours
  terminal half-life (t½), range: 7 to 15 h
[6]; [8]
  median AUC12h,ss: 7730 ng·h/mL
  median Cmax,ss: 1340 ng/mL
[6]; 400 mg b.i.d.
  decrease of CL/F after approximately 120 h: 18%
[6]; 480 mg b.i.d.
  decrease of CL/F after approximately 120 h: 22%
[6]; 80–480 mg after multiple doses
  dose proportionality of AUC and Cmax: proportional; also recorded: approximately proportionally
[6]; beyond 480 mg after multiple doses
  dose proportionality of AUC and Cmax: more than proportional; also recorded: more than proportionally
[6]; [9]
  increase in AUC12h,ss: 14%
  increase in Cmax,ss: 14%
  reduction in CLss/F: 12%
[6]; body weight, dose, paclitaxel, food, formulation
  predicted impact of significant covariates on exposure to capivasertib: < 20%
[6]; concomitant paclitaxel vs no paclitaxel
  increase in CLss/F: 20%
[6]; simulations, three schedules, different dose levels
  time after which steady state is achieved: approximately 120 h
[7]
  renal clearance as share of total clearance: 21%
